Data reported in ChEMBL document CHEMBL3991601, “The target landscape of clinical kinase drugs” (Science, 2017).
Active and inactive are the calls of the source.

Experiments:
[1] = target: Mitogen-activated protein kinase 7 (Homo sapiens, UniProt Q13164)
[2] = target: T1, Serine/threonine-protein kinase ULK1 (Homo sapiens, UniProt O75385)
T1 sequence (O75385 whole entry): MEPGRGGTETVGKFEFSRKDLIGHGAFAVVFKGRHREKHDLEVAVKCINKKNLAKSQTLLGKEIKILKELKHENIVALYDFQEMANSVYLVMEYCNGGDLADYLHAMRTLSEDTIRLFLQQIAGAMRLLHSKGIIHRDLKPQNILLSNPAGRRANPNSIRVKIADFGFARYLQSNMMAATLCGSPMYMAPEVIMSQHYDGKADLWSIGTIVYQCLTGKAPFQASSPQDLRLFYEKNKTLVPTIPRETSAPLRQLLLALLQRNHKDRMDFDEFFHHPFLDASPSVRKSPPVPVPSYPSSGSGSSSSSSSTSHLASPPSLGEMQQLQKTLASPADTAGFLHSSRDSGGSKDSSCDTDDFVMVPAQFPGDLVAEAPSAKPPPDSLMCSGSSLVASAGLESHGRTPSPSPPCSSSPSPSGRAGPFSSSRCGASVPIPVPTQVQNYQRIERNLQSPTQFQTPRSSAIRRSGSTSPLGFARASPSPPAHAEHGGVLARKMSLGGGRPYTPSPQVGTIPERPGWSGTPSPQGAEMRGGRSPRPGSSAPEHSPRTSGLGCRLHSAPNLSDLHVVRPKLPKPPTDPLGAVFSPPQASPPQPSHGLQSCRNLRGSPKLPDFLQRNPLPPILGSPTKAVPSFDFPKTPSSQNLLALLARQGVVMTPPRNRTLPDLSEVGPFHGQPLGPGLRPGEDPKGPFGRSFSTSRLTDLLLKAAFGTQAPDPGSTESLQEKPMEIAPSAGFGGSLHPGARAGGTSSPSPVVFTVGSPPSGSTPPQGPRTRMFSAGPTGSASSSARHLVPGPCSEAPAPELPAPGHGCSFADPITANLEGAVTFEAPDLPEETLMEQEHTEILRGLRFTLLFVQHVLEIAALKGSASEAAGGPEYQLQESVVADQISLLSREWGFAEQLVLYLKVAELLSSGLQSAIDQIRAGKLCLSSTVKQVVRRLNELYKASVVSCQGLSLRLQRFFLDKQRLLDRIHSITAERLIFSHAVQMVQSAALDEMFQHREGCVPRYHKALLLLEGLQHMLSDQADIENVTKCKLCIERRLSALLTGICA

[3] = target: T2, Ephrin type-B receptor 3 (Homo sapiens, UniProt P54753)
T2 sequence (P54753 whole entry): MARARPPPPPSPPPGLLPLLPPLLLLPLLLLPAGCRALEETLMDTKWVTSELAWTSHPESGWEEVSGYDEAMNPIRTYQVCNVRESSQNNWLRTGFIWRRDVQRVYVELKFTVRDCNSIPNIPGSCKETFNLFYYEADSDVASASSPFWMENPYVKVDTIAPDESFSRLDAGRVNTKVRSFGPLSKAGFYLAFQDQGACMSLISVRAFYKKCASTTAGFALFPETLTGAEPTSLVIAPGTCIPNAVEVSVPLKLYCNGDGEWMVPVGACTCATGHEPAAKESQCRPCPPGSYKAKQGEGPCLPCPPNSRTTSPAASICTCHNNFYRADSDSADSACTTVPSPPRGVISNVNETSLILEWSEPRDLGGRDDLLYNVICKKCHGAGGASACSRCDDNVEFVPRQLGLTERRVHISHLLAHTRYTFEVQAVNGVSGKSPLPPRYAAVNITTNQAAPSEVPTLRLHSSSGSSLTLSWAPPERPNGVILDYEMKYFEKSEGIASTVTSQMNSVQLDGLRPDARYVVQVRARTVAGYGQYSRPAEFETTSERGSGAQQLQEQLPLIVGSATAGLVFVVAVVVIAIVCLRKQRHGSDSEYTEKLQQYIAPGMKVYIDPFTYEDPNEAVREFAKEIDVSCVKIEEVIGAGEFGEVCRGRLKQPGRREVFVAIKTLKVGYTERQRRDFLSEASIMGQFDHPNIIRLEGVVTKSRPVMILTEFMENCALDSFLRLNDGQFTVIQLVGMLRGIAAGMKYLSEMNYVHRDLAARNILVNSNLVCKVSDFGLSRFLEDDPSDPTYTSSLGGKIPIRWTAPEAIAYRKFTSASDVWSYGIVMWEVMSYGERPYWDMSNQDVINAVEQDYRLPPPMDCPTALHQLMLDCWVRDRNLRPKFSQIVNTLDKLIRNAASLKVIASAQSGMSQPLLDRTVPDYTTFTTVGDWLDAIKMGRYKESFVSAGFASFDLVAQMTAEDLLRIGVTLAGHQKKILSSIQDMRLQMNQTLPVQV

[4] = target: Tyrosine-protein kinase Yes (Homo sapiens, UniProt P07947)
Sequence of Tyrosine-protein kinase Yes (P07947 whole entry): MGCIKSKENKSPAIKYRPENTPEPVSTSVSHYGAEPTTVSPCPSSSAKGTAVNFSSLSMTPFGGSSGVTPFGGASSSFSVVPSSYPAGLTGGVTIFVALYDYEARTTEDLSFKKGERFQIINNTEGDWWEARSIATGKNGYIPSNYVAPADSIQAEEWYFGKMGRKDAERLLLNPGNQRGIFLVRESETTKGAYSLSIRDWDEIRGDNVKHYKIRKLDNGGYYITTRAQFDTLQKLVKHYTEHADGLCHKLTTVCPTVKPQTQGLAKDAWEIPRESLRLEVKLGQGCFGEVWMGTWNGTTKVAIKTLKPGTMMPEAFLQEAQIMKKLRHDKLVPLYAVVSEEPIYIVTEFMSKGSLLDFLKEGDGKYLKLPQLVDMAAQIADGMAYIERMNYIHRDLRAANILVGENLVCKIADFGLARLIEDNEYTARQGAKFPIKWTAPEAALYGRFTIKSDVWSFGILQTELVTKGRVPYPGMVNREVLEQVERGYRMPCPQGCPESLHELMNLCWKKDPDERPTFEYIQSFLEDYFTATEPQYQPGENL

[5] = target: Serine/threonine-protein kinase PAK 2 (Homo sapiens, UniProt Q13177)
Sequence of Serine/threonine-protein kinase PAK 2 (Q13177 whole entry): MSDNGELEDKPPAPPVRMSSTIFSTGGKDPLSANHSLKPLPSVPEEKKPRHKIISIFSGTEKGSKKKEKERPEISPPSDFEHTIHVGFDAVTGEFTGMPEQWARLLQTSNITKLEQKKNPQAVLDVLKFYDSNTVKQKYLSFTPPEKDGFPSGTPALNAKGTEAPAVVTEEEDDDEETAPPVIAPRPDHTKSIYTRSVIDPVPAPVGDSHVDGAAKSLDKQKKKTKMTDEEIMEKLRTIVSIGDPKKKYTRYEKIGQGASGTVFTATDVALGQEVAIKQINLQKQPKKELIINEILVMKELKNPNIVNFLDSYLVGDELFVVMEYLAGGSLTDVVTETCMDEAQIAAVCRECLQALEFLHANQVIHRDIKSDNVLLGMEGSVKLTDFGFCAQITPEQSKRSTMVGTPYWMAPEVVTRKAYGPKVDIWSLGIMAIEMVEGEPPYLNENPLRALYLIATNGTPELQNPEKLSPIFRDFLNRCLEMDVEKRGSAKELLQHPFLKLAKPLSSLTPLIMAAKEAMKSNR

[6] = target: GTP-binding nuclear protein Ran (Homo sapiens, UniProt P62826)
[7] = target: T3, Phosphatidylinositol 5-phosphate 4-kinase type-2 gamma (Homo sapiens, UniProt Q8TBX8)
T3 sequence (Q8TBX8 whole entry): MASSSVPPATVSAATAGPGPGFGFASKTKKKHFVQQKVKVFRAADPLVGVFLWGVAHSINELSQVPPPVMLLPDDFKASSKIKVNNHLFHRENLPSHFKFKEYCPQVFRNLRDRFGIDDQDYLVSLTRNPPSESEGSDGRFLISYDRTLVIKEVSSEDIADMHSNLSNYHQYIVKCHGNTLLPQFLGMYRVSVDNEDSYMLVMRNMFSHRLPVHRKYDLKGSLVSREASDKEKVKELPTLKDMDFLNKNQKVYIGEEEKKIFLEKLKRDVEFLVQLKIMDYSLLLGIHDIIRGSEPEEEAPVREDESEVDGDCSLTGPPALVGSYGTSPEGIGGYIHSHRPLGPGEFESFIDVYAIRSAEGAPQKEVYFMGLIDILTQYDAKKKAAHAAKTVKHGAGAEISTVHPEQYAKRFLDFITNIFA

[8] = target: Mitogen-activated protein kinase 9 (Homo sapiens, UniProt P45984)
Sequence of Mitogen-activated protein kinase 9 (P45984 whole entry): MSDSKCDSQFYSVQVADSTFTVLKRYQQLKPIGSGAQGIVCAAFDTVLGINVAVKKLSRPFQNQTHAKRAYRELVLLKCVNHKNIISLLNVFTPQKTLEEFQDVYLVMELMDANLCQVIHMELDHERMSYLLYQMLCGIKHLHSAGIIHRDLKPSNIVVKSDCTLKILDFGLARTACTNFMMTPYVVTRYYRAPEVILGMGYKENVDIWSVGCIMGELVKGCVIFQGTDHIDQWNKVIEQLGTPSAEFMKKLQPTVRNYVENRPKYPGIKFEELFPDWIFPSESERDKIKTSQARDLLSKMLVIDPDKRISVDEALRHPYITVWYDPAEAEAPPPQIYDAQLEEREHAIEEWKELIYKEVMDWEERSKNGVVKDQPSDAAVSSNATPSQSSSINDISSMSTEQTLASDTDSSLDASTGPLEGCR

[9] = target: cAMP-dependent protein kinase catalytic subunit alpha (Homo sapiens, UniProt P17612)
[10] = target: Serine/threonine-protein kinase B-raf (Homo sapiens, UniProt P15056)
Sequence of Serine/threonine-protein kinase B-raf (P15056 whole entry): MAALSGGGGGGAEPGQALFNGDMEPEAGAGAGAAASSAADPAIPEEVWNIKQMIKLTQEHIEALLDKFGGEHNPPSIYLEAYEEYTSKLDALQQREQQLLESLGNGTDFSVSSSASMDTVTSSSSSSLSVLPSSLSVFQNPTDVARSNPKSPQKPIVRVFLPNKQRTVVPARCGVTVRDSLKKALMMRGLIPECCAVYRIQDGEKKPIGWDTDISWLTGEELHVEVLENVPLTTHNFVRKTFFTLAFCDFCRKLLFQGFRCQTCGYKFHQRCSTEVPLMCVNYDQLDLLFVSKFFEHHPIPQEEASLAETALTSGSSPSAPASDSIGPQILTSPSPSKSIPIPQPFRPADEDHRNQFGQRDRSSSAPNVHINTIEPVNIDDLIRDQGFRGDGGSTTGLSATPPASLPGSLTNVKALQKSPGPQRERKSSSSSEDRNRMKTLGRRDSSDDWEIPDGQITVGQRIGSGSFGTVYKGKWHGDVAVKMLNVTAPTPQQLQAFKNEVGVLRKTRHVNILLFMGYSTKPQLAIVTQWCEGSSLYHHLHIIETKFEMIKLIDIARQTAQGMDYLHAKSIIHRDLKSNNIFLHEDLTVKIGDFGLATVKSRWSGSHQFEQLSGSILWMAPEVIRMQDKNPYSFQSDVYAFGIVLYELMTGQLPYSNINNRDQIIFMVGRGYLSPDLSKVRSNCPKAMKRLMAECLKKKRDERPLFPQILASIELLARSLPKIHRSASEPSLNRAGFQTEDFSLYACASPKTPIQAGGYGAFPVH

[11] = target: Cyclin-dependent kinase 4 (Homo sapiens, UniProt P11802)
Sequence of Cyclin-dependent kinase 4 (P11802 whole entry): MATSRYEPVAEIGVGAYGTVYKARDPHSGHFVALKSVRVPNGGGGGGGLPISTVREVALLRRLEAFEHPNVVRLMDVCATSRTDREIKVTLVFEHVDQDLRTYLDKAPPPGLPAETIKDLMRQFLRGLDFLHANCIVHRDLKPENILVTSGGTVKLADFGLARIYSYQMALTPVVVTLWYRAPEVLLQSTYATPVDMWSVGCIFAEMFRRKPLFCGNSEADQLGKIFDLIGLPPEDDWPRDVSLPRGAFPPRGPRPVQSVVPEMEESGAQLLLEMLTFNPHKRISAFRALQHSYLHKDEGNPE

[12] = target: Serine/threonine-protein kinase pim-1 (Homo sapiens, UniProt P11309)
Sequence of Serine/threonine-protein kinase pim-1 (P11309 whole entry): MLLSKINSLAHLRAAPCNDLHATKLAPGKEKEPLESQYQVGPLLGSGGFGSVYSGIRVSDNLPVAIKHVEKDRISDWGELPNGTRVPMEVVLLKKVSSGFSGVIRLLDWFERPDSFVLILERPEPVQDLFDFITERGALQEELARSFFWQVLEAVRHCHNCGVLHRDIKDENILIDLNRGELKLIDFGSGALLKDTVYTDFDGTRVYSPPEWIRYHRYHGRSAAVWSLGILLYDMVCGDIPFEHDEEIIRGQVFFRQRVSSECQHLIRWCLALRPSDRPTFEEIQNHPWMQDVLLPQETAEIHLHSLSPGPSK
Note: in the data inactive means no Kd found up to 30 µM.

Sequence of Mitogen-activated protein kinase 7 (Q13164 whole entry): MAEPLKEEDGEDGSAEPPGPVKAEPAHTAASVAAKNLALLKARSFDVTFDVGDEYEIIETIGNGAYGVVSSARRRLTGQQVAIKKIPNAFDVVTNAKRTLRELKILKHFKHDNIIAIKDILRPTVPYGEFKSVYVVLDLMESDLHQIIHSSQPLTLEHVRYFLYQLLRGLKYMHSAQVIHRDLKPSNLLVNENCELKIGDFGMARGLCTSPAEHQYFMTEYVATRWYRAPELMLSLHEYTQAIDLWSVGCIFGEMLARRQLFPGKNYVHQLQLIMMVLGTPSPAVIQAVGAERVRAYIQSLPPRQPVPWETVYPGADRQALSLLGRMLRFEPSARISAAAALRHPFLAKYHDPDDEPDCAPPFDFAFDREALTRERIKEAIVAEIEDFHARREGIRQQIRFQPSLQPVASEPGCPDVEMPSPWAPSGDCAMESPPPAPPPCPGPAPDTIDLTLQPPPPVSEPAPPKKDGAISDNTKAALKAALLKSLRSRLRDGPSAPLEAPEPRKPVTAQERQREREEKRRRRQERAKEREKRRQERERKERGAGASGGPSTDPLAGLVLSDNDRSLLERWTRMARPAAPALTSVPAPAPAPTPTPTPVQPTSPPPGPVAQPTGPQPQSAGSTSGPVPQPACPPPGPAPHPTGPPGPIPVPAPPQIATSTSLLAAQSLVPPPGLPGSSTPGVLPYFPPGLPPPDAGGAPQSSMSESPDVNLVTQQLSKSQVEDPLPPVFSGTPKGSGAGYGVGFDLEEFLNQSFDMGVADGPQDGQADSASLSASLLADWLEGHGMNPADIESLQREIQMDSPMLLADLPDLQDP

SMILES | Kd [1] | Kd [2] | Kd [4] | Kd [5] | Kd [6] | Kd [8] | Kd [3] | Kd [7] | Kd [9] | Kd [10] | Kd [11] | Kd [12]
CCN1CCN(Cc2ccc(Nc3ncc(F)c(-c4cc(F)c5nc(C)n(C(C)C)c5c4)n3)nc2)CC1 [ABEMACICLIB] | > 30 µM (inactive) | > 30 µM (inactive) | > 30 µM (inactive) | > 30 µM (inactive) | > 30 µM (inactive) | > 30 µM (inactive) | > 30 µM (inactive) | > 30 µM (inactive) | > 30 µM (inactive) | > 30 µM (inactive) | – | –
C=CCn1c(=O)c2cnc(Nc3ccc(N4CCN(C)CC4)cc3)nc2n1-c1cccc(C(C)(C)O)n1 [ADAVOSERTIB] | > 30 µM (inactive) | > 30 µM (inactive) | > 30 µM (inactive) | > 30 µM (inactive) | > 30 µM (inactive) | – | > 30 µM (inactive) | > 30 µM (inactive) | > 30 µM (inactive) | > 30 µM (inactive) | > 30 µM (inactive) | –
O=S(=O)(c1cccc2cnccc12)N1CCCNCC1 [FASUDIL] | > 30 µM (inactive) | – | > 30 µM (inactive) | > 30 µM (inactive) | – | – | > 30 µM (inactive) | > 30 µM (inactive) | – | > 30 µM (inactive) | > 30 µM (inactive) | –
CCc1nc(C(N)=O)c(Nc2ccc(N3CCC(N4CCN(C)CC4)CC3)c(OC)c2)nc1NC1CCOCC1 [GILTERITINIB] | > 30 µM (inactive) | > 30 µM (inactive) | – | – | 0.759 µM | 0.43 µM (active) | > 30 µM (inactive) | > 30 µM (inactive) | > 30 µM (inactive) | > 30 µM (inactive) | 1.95 µM (active) | > 30 µM (inactive)
C[C@]1(O)C[C@@H](c2nc(-c3ccc4ccc(-c5ccccc5)nc4c3)c3c(N)nccn32)C1 [LINSITINIB] | > 30 µM (inactive) | > 30 µM (inactive) | > 30 µM (inactive) | – | > 30 µM (inactive) | – | > 30 µM (inactive) | 5.57 µM (active) | – | > 30 µM (inactive) | > 30 µM (inactive) | –
N#CCNC(=O)c1ccc(-c2ccnc(Nc3ccc(N4CCOCC4)cc3)n2)cc1 [MOMELOTINIB] | > 30 µM (inactive) | > 30 µM (inactive) | > 30 µM (inactive) | > 30 µM (inactive) | > 30 µM (inactive) | – | > 30 µM (inactive) | > 30 µM (inactive) | > 30 µM (inactive) | > 30 µM (inactive) | > 30 µM (inactive) | > 30 µM (inactive)
CN(c1ncccc1CNc1nc(Nc2ccc3c(c2)CC(=O)N3)ncc1C(F)(F)F)S(C)(=O)=O [PF-00562271] | – | > 30 µM (inactive) | > 30 µM (inactive) | > 30 µM (inactive) | > 30 µM (inactive) | – | > 30 µM (inactive) | > 30 µM (inactive) | > 30 µM (inactive) | > 30 µM (inactive) | > 30 µM (inactive) | –
NC(=O)c1ccc(N(C(N)=O)c2c(F)cccc2F)nc1-c1ccc(F)cc1F [VX-702] | > 30 µM (inactive) | > 30 µM (inactive) | > 30 µM (inactive) | – | > 30 µM (inactive) | – | > 30 µM (inactive) | > 30 µM (inactive) | > 30 µM (inactive) | > 30 µM (inactive) | > 30 µM (inactive) | > 30 µM (inactive)

Further lines, with some results ahead:

Kd [1] | Kd [2] | Kd [4] | Kd [5] | Kd [6] | Kd [8] | SMILES | Kd [3] | Kd [7] | Kd [9] | Kd [10] | Kd [11] | Kd [12]
– | – | – | – | > 30 µM (inactive) | – | CN(C)C/C=C/C(=O)Nc1cc2c(Nc3ccc(F)c(Cl)c3)ncnc2cc1O[C@H]1CCOC1 [AFATINIB] | – | – | – | – | – | –
> 30 µM (inactive) | > 30 µM (inactive) | > 30 µM (inactive) | > 30 µM (inactive) | > 30 µM (inactive) | – | CCN(CCCOc1ccc2c(Nc3cc(CC(=O)Nc4cccc(F)c4)n[nH]3)ncnc2c1)CCOP(=O)(O)O [BARASERTIB] | > 30 µM (inactive) | > 30 µM (inactive) | – | > 30 µM (inactive) | > 30 µM (inactive) | –
– | – | – | – | > 30 µM (inactive) | – | C[C@@]1(C(=O)Nc2ccc(F)nc2)CCCN1c1nc(Nc2cc(C3CC3)n[nH]2)c2cccn2n1 [BMS-754807] | – | – | – | – | – | –
– | – | – | – | > 30 µM (inactive) | – | COc1cc2c(Oc3ccc4[nH]c(C)cc4c3F)ncnc2cc1OCCCN1CCCC1 [CEDIRANIB] | – | – | – | – | – | –
> 30 µM (inactive) | > 30 µM (inactive) | > 30 µM (inactive) | > 30 µM (inactive) | > 30 µM (inactive) | – | Cn1c(=O)n(-c2ccc(C(C)(C)C#N)cc2)c2c3cc(-c4cnc5ccccc5c4)ccc3ncc21 [DACTOLISIB] | > 30 µM (inactive) | > 30 µM (inactive) | – | > 30 µM (inactive) | > 30 µM (inactive) | –
– | – | – | – | > 30 µM (inactive) | – | CC1(C)CNc2cc(NC(=O)c3cccnc3NCc3ccncc3)ccc21 [MOTESANIB] | – | – | – | – | – | –
– | – | – | – | > 30 µM (inactive) | – | Cn1cnc2c(F)c(Nc3ccc(Br)cc3Cl)c(C(=O)NOCCO)cc21 [SELUMETINIB] | – | – | – | – | – | –
> 30 µM (inactive) | 3.66 µM (active) | > 30 µM (inactive) | > 30 µM (inactive) | > 30 µM (inactive) | > 30 µM (inactive) | O=C(O)c1ccc2c(c1)nc(Nc1cccc(Cl)c1)c1ccncc12 [SILMITASERTIB] | > 30 µM (inactive) | 1.11 µM (active) | > 30 µM (inactive) | > 30 µM (inactive) | > 30 µM (inactive) | –
> 30 µM (inactive) | > 30 µM (inactive) | > 30 µM (inactive) | > 30 µM (inactive) | > 30 µM (inactive) | – | O[C@H]1CC[C@H](Nc2ncc3nc(Nc4c(F)cc(F)cc4F)n([C@H]4CCOC4)c3n2)CC1 [TANZISERTIB] | > 30 µM (inactive) | > 30 µM (inactive) | > 30 µM (inactive) | > 30 µM (inactive) | > 30 µM (inactive) | > 30 µM (inactive)
